Test results: article PMC2248166, “Quantitative peptide binding motifs for 19 human and mouse MHC class I molecules derived using positional scanning combinatorial peptide libraries” (Immunome Research, 2008)

Tests used:
Type in all cases: binding
HLA A*3001 = HLA A*3001 (Homo sapiens, UniProt P04439, D140H/D185E/E176W/F33S/G80R/H175R/K168Q/R138E/R41S); experiment: biochemical
HLA A*3201 = HLA A*3201 (Homo sapiens, UniProt P04439, A270S/D101S/D185E/E176V/E277Q/F133L/G103R/G107R/G231S/H175R/I121M/I218V/I322F/K168Q/L105A/L300P/L318F/M331R/P208A/P217A/Q94H/R106L/R138Q/S129P/T104I/T323A/T345S/V100E/V321M/V358M); experiment: biochemical
HLA A*6802 = HLA A*6802 (Homo sapiens, UniProt P04439, A269V/D140Y/D185E/E176V/E277Q/E87N/F33Y/G231S/I121R/I166T/I218V/L180W/L300P/L318F/N151K/P208A/P217A/Q86R/R138H/R169H/S129P/T345S/V36M)
HLA B*0801 = HLA B*0801 (Homo sapiens, UniProt P01889, A93T/A95T/D138N/E176V/E187T/K202T/Q94N/R180D/S35A/V36M/Y33D/Y91F); experiment: biochemical
HLA B*1501 = HLA B*1501 (Homo sapiens, UniProt P01889, A329T/A93T/A95T/C349S/D201E/D98Y/E187L/E204Q/E69M/E70A/K202T/N87E/Q94N/R155S/R180W/S121R/S35A/S48A/V306I/V36M/Y140S/Y91S); experiment: biochemical
HLA B*1503 = HLA B*1503 (Homo sapiens, UniProt P01889, A329T/A93T/A95T/C349S/D201E/D98Y/E187L/E204Q/K202T/N87E/Q94N/R155S/R180L/S121R/S35A/V306I/V36M/Y140S/Y91S); experiment: biochemical
HLA B*3501 = HLA B*3501 (Homo sapiens, UniProt P01889, A329T/A93T/A95T/C349S/D201E/D98Y/E176V/E187L/E204Q/E69T/I218V/K202T/L119I/Q94N/R155S/R180L/S121R/S35A/S48A/T118I/V127L/V306I/V36M/Y140S/Y91F)
HLA B*5101 = HLA B*5101 (Homo sapiens, UniProt P01889, A329T/A93T/A95T/C349S/D138N/D201E/D98Y/E187L/E204Q/E69T/G107R/I218V/K202T/L105A/L119W/N104I/Q94N/R106L/R155S/R180L/S101N/S121T/S35A/S48A/V306I/V36M/Y195H/Y91F)
HLA B*5301 = HLA B*5301 (Homo sapiens, UniProt P01889, A329T/A93T/A95T/C349S/D201E/D98Y/E176V/E187L/E204Q/E69T/G107R/I218V/K202T/L105A/L119I/N104I/Q94N/R106L/R155S/R180L/S101N/S121R/S35A/S48A/T118I/V127L/V306I/V36M/Y140S/Y91F)
HLA B*5401 = HLA B*5401 (Homo sapiens, UniProt P01889, A329T/C349S/D138N/D201E/E176V/E187T/E204Q/E69G/I76V/K202T/L119W/R155S/R180L/S121T/S35A/S48A/V127L/V306I/V36M/Y140L)
HLA B*5801 = HLA B*5801 (Homo sapiens, UniProt P01889, A329T/C349S/D201E/D98Y/E176V/E187L/E204Q/E69T/G107R/I218V/I90N/K202T/L105A/L119I/N104I/N87E/Q89R/Q94S/R106L/R155S/R180L/R86G/S101N/S121R/S35A/S48A/T118I/V127L/V306I/V36M/Y140S/Y91M)
HLA B*5802 = HLA B*5802 (Homo sapiens, UniProt P01889, A329T/C349S/D201E/D98Y/E176V/E187L/E204Q/E69T/G107R/I218V/I90N/K202T/L105A/N104I/N87E/Q89R/Q94S/R106L/R155S/R180L/R86G/S101N/S121W/S35A/S48A/V127L/V306I/V36M/Y140S/Y91M)
H-2 D^b = H-2 D^b (Mus musculus, UniProt P01899)
H-2 D^d = H-2 D^d (Mus musculus, UniProt P01900)
H-2 K^d = H-2 K^d (Mus musculus, UniProt P01902)
H-2 K^k = H-2 K^k (Mus musculus, UniProt P04223)
Sequence of H-2 K^k (P01887 21-119): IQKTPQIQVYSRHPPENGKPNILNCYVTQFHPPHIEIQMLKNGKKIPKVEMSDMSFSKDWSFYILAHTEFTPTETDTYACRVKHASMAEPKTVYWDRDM
Sequence of H-2 K^k (P04223 22-369): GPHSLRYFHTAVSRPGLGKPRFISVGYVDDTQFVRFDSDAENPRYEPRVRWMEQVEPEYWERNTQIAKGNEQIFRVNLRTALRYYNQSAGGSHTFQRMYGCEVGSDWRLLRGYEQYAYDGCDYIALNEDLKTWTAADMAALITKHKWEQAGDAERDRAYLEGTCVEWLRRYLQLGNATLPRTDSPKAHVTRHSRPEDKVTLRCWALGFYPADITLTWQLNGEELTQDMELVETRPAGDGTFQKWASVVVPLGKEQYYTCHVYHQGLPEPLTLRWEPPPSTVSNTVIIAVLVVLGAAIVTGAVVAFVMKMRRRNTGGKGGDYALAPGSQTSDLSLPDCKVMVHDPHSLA

Sequence of H-2 K^d (P01887 21-119): as the sequence (P01887 21-119) above
Sequence of H-2 K^d (P01902 22-368): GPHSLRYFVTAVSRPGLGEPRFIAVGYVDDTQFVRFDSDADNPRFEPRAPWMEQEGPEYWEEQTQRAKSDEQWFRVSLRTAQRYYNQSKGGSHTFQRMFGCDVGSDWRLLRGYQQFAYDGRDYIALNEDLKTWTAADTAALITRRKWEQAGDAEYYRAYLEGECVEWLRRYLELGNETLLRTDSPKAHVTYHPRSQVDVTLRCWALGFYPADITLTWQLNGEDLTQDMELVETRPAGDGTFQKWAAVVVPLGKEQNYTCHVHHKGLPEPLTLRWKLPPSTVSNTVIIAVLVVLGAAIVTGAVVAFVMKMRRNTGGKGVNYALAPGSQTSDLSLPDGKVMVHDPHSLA
Sequence of H-2 D^b (P01887 21-119): as the sequence (P01887 21-119) above
Sequence of H-2 D^b (P01899 25-362): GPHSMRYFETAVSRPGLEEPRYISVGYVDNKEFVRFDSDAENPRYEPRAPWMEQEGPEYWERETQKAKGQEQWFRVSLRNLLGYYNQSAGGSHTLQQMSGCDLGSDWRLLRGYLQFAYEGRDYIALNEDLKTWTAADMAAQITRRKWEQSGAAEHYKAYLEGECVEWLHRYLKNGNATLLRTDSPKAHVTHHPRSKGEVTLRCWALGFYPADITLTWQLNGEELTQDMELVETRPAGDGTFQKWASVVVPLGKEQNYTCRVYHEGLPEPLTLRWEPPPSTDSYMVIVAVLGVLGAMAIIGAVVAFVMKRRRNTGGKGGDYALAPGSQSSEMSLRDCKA
Sequence of H-2 D^d (P01900 whole entry, looked up): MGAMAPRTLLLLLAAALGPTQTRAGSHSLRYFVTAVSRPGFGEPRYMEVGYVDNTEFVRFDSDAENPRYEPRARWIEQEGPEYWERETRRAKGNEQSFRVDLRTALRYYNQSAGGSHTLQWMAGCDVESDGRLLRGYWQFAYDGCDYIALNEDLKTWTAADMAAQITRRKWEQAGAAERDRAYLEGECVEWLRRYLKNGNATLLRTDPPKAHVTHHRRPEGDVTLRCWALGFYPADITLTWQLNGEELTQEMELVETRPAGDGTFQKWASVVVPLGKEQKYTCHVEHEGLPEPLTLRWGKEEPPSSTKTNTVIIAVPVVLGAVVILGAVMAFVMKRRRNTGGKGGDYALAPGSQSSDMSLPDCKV

Row | Sequence | Normalized average relative binding affinity(ARB) (HLA A*3001) | Normalized average relative binding affinity(ARB) (HLA A*3201) | Normalized average relative binding affinity(ARB) (HLA A*6802) | Normalized average relative binding affinity(ARB) (HLA B*0801) | Normalized average relative binding affinity(ARB) (HLA B*1501) | Normalized average relative binding affinity(ARB) (HLA B*1503) | Normalized average relative binding affinity(ARB) (HLA B*3501) | Normalized average relative binding affinity(ARB) (HLA B*5101) | Normalized average relative binding affinity(ARB) (HLA B*5301) | Normalized average relative binding affinity(ARB) (HLA B*5401) | Normalized average relative binding affinity(ARB) (HLA B*5801) | Normalized average relative binding affinity(ARB) (HLA B*5802) | Normalized average relative binding affinity(ARB) (H-2 D^b) | Normalized average relative binding affinity(ARB) (H-2 D^d) | Normalized average relative binding affinity(ARB) (H-2 K^d) | Normalized average relative binding affinity(ARB) (H-2 K^k)
1 | XXXXXSXXX [3064.0116] | 0.44 | 0.80 | 0.57 | 0.052 | 0.35 | 0.51 | 0.33 | 0.32 | 0.17 | 0.18 | 0.45 | 0.055 | 0.70 | 0.63 | 0.25 | 0.70
2 | XXXXXXXLX [3064.0150] | 0.23 | 0.29 | 0.16 | 0.11 | 0.15 | 0.13 | 0.31 | 0.86 | 0.42 | 0.053 | 0.43 | 0.57 | 0.46 | 0.80 | 0.43 | 0.54
3 | XXXXXXXFX [3064.0145] | 0.76 | 0.24 | 0.31 | 0.32 | 0.32 | 0.21 | 0.13 | 1.0 | 0.46 | 0.080 | 1.0 | 0.33 | 0.79 | 0.75 | 0.66 | 1.0
4 | XXXXXDXXX [3064.0103] | 0.016 | 0.16 | 0.69 | 0.0089 | 0.18 | 0.19 | 0.13 | 0.064 | 0.15 | 0.045 | 0.36 | 0.15 | 0.29 | 0.29 | 0.066 | 0.37
5 | XXXXXXXGX [3064.0146] | 0.18 | 0.54 | 0.31 | 0.099 | 0.15 | 0.18 | 0.098 | 0.20 | 0.094 | 0.083 | 0.21 | 0.87 | 0.043 | 0.62 | 0.63 | 0.32
6 | XXXXXXCXX [3064.0122] | 0.21 | 0.11 | 0.11 | 0.44 | 0.78 | 0.094 | 0.18 | 0.28 | 0.17 | 0.16 | 0.082 | 0.024 | 0.28 | 0.048 | 0.12 | 0.094
7 | XXXXXNXXX [3064.0112] | 0.13 | 0.73 | 0.45 | 0.039 | 0.26 | 0.0067 | 0.16 | 0.40 | 0.13 | 0.29 | 0.027 | 1.0 | 0.56 | 0.39 | 0.22 | 0.32
8 | XXXXXXLXX [3064.0130] | 0.21 | 0.86 | 0.56 | 0.60 | 1.0 | 0.24 | 0.21 | 0.65 | 0.32 | 0.13 | 1.0 | 0.014 | 0.26 | 0.036 | 0.10 | 0.10
